Measured values from patent publication US20130267474A1, “NOVEL PHYTOCHEMICALS FROM EXTRACTS OF MAPLE SYRUPS AND MAPLE TREES AND USES THEREOF” (UNIVERSITY OF RHODE ISLAND, priority 2010, published 2013).
Read-outs that look alike come from different tables or passages of the source.

Tests used:
[1] = DPPH radical scavenging (antioxidant) assay; type: biochemical; details: for IC50, DPPH radical scavenging, converted (ca.): conversion of the μM value
Experimental: The DPPH radical scavenging activity of ascorbic acid (vitamin C) and the synthetic commercial antioxidant, butylated hydroxytoluene (BHT) are also assayed as positive controls (see Table 10). […] Absorbance is determined after 30 min at 515 nm, and the scavenging capacity (SC) is calculated as SC %=[(A0−A1/A0)]×100, where A0 is the absorbance of the reagent blank and A1 is the absorbance of the test samples. The control contained all reagents except the compounds, and all tests are performed in triplicate.
Absorbance is determined after 30 min at 515 nm, and the scavenging capacity (SC) is calculated as SC %=[(A0−A1/A0)]×100 where A0 is the absorbance of the reagent blank, and A1 is the absorbance with test samples. The control contained all reagents except the compounds and all tests are performed in triplicate.

[2] = system: HT-29 (human colon adenocarcinoma); assay: MTS cytotoxicity / antiproliferative assay; type: cell-based; details: Homo sapiens
Experimental: (§1) Cell lines included three human colon cancer cells: HT-29 (human colon adenocarcinoma), HCT116 (human colon carcinoma) and Caco-2 (human epithelial colorectal adenocarcinoma). In addition, normal human colon cells are included: CCD-^18Co (human colon fibroblasts). All cell lines are obtained from the American Type Culture Collection (ATCC, Rockville, Md., USA) and maintained at the University of Rhode Island.
(§2) The assay is carried out to measure the IC50 values for samples. […] Test samples and a positive control, etoposide 4 mg/mL (Sigma), are solubilized in DMSO by sonication. […] Control wells are also included on all plates. […] Each point on the curve is […]. Data (see tables 6 to 9) are expressed as mean±SE for three replications on each cell line.

[3] = system: HCT-116 (human colon carcinoma); assay: MTS cytotoxicity / antiproliferative assay; type: cell-based; details: Homo sapiens
Experimental: as §1, §2

[4] = system: Caco-2 (human epithelial colorectal adenocarcinoma); assay: MTS cytotoxicity / antiproliferative assay; type: cell-based; details: Homo sapiens
Experimental: as §1, §2

[5] = Table 10, mean ± standard deviation, 30 min, 515 nm, read-out: IC50 (μM), DPPH radical scavenging
[6] = HT-29, 48 h, read-out: HT-29 48 h(IC50), Table 6 maple compounds, 48 h, unit inferred
[7] = HT-29, 72 h, Table 6 maple compounds, 72 h, unit inferred, read-out: HT-29 72 h(IC50)
[8] = HCT-116, 48 h, read-out: HCT-116 48 h(IC50), Table 6 maple compounds, 48 h, unit inferred
[9] = HCT-116, 72 h, Table 6 maple compounds, 72 h, unit inferred, read-out: HCT-116 72 h(IC50)
[10] = HT-29, 72 h, 72 h, pure isolated compounds, read-out: Antiproliferative activity HT-29 72 h (IC50)
[11] = HCT-116, 48 h, read-out: Antiproliferative activity HCT-116 48 h (IC50), 48 h, pure isolated compounds
[12] = HCT-116, 72 h, 72 h, pure isolated compounds, read-out: Antiproliferative activity HCT-116 72 h (IC50)
[13] = HCT-116, 72 h, 72 h, range given for the group, read-out: IC50 against HCT-116 cells at 72 h (activity ranking)
[14] = Caco-2, 48 h, read-out: Antiproliferative activity Caco-2 48 h (IC50), 48 h, pure isolated compounds
[15] = Caco-2, 48 h, read-out: Caco-2 48 h(IC50), Table 6 maple compounds, 48 h, unit inferred
[16] = Caco-2, 72 h, 72 h, pure isolated compounds, read-out: Antiproliferative activity Caco-2 72 h (IC50)
[17] = Caco-2, 72 h, Table 6 maple compounds, 72 h, unit inferred, read-out: Caco-2 72 h(IC50)
[18] = HT-29, 48 h, read-out: Antiproliferative activity HT-29 48 h (IC50), 48 h, pure isolated compounds

## 2,4,5-trihydroxyacetophenone [compound 13]
[1]; [5]
  IC50: 68.9 ± 5.7 µM

## 5-(3″,4″-dimethoxyphenyl)-3-hydroxy-3-(4′-hydroxy-3′-methoxybenzyl)-4-hydroxymethyl-dihydrofuran-2-one [compound 24]
[1]; [5]
  IC50: 254 ± 32.5 µM

## O=C1O[C@H]([C@@H](O)CO)C(O)=C1O [Ascorbic acid, reference compound]
[1]; [5]
  IC50: 40.2 ± 13.4 µM
[1]
  IC50, DPPH radical scavenging, converted (ca.): ca. 7.08 μg/mL
[1]; listed as Vitamin C, read-out: IC50, DPPH radical scavenging (text)
  IC50: 40 µM
[1]; listed as vitamin C, read-out: IC50, DPPH radical scavenging (text)
  IC50: 58 µM

## Cc1cc(C(C)(C)C)c(O)c(C(C)(C)C)c1 [BHT, butylated hydroxytoluene, reference compound]
[1]; [5]
  IC50: 3000 ± 1120 µM
[1]
  IC50, DPPH radical scavenging, converted (ca.): ca. 660 μg/mL
[1]; running text, listed as butylatedhydroxytoluene, read-out: IC50, DPPH radical scavenging (text)
  IC50: 2650 µM
[1]; running text, read-out: IC50, DPPH radical scavenging (text)
  IC50: 3000 µM

## COc1cc(/C=C/C(=O)O)ccc1O [Ferulic Acid]
[2]; [6]
  IC50: 128 µM
[2]; [7]
  IC50: 121 µM
[3]; [8]
  IC50: 119 µM
[3]; [9]
  IC50: 104 µM

## COc1cc([C@@H](O)[C@@H](CO)Oc2ccc(CCCO)cc2OC)ccc1O [compound 6, erythro-guaiacylglycerol-β-O-4′-dihydroconiferyl alcohol]
[2]; [10]
  IC50: 110 ± 2 µM
[2]; [7]
  IC50: 110 µM
[3]; [11]
  IC50: 107 ± 2.3 µM
[3]; [8]
  IC50: 107 µM
[3]; [12]
  IC50: 98.6 ± 3.2 µM
[3]; [13]
  IC50: 94 to 110 µM
[3]; [9]
  IC50: 98.6 µM
[4]; [14]
  IC50: 93.9 ± 2 µM
[4]; [15]
  IC50: 93.9 µM
[4]; [16]
  IC50: 88.5 ± 1 µM
[4]; [17]
  IC50: 88.5 µM

## COc1cc(/C=C/c2ccc(O)c(OC)c2)ccc1O [compound 10, (E)-3,3′-dimethoxy-4,4′-dihydroxystilbene]
[4]; [17]
  IC50: 93.1 µM
[1]; [5]
  IC50: 578.5 ± 1.3 µM

## COc1cc(C=O)ccc1O [compound 15, vanillin]
[2]; [10]
  IC50: 114 ± 1.5 µM
[2]; [7]
  IC50: 114 µM
[3]; [11]
  IC50: 120.3 ± 1 µM
[3]; [8]
  IC50: 120 µM
[3]; [12]
  IC50: 110 ± 1.7 µM
[3]; [13]
  IC50: 94 to 110 µM
[3]; [9]
  IC50: 110 µM
[1]; [5]
  IC50: 1810 ± 266 µM

## COc1cc(C=O)cc(OC)c1O [compound 16, syringaldehyde]
[2]; HT-29, 48 h, read-out: Antiproliferative activity HT-29 48 h (IC50)
  IC50: 90.7 ± 3 µM
[2]; HT-29, 48 h, read-out: HT-29 48 h(IC50)
  IC50: 90.7 µM
[2]; HT-29, 72 h, read-out: Antiproliferative activity HT-29 72 h (IC50)
  IC50: 68.6 ± 1.4 µM
[2]; HT-29, 72 h, read-out: HT-29 72 h(IC50)
  IC50: 68.6 µM
[3]; HCT-116, 48 h, read-out: Antiproliferative activity HCT-116 48 h (IC50)
  IC50: 66.8 ± 1.3 µM
[3]; HCT-116, 48 h, read-out: HCT-116 48 h(IC50)
  IC50: 66.8 µM
[3]; HCT-116, 72 h, read-out: Antiproliferative activity HCT-116 72 h (IC50)
  IC50: 56.3 ± 1.8 µM
[3]; HCT-116, 72 h, read-out: HCT-116 72 h(IC50)
  IC50: 56.3 µM
[3]; HCT-116, 72 h, read-out: IC50 against HCT-116 cells at 72 h (activity ranking)
  IC50: 42 to 67 µM
[4]; Caco-2, 48 h, read-out: Antiproliferative activity Caco-2 48 h (IC50)
  IC50: 59.4 ± 2.7 µM
[4]; Caco-2, 48 h, read-out: Caco-2 48 h(IC50)
  IC50: 59.4 µM
[4]; Caco-2, 72 h, read-out: Antiproliferative activity Caco-2 72 h (IC50)
  IC50: 35.9 ± 2.4 µM
[4]; Caco-2, 72 h, read-out: Caco-2 72 h(IC50)
  IC50: 35.9 µM

## O=C(O)c1cc(O)c(O)c(O)c1 [compound 17, gallic acid]
[3]; [11]
  IC50: 64.9 ± 2.3 µM
[3]; [8]
  IC50: 64.9 µM
[3]; [12]
  IC50: 42.1 ± 1.9 µM
[3]; [13]
  IC50: 42 to 67 µM
[3]; [9]
  IC50: 42.1 µM
[4]; [16]
  IC50: 89.3 ± 1.7 µM
[4]; [17]
  IC50: 89.3 µM

## COc1cc(C(=O)O)cc(OC)c1O [compound 19, syringic acid]
[2]; [18]
  IC50: 126 ± 1.8 µM
[2]; [6]
  IC50: 126 µM
[2]; [10]
  IC50: 116 ± 1.8 µM
[2]; [7]
  IC50: 116 µM
[3]; [11]
  IC50: 119 ± 1.3 µM
[3]; [8]
  IC50: 119 µM
[3]; [12]
  IC50: 108 ± 0.9 µM
[3]; [13]
  IC50: 94 to 110 µM
[3]; [9]
  IC50: 108 µM

## COc1cc(/C=C/CO)cc(OC)c1O [compound 20, syringenin]
[2]; [18]
  IC50: 126 ± 3 µM
[2]; [6]
  IC50: 126 µM
[2]; [10]
  IC50: 113 ± 1.5 µM
[2]; [7]
  IC50: 113 µM
[3]; [11]
  IC50: 123.5 ± 1.1 µM
[3]; [8]
  IC50: 124 µM
[3]; [12]
  IC50: 108 ± 1.5 µM
[3]; [13]
  IC50: 94 to 110 µM
[3]; [9]
  IC50: 108 µM
[1]; [5]
  IC50: 322 ± 31.9 µM

## COc1cc(/C=C/CO)ccc1O [compound 21, (E)-coniferol]
[2]; [10]
  IC50: 113 ± 1.9 µM
[2]; [7]
  IC50: 113 µM
[3]; [11]
  IC50: 111 ± 1.5 µM
[3]; [8]
  IC50: 111 µM
[3]; [12]
  IC50: 84.6 ± 1.9 µM
[3]; HCT-116, 72 h, 72 h, range given for the group, unit inferred, read-out: IC50 against HCT-116 cells at 72 h (moderately active group)
  IC50: 75 to 85 µM
[3]; [9]
  IC50: 84.6 µM
[4]; [14]
  IC50: 112 ± 2 µM
[4]; [15]
  IC50: 116 µM
[4]; [16]
  IC50: 96.4 ± 2.9 µM
[4]; [17]
  IC50: 96.4 µM

## COc1cc(C(O)C(CO)Oc2c(OC)cc(C(O)C(O)CO)cc2OC)ccc1O (stereo not drawn) [compound 25, (erythro,erythro)-1-[4-[2-hydroxy-2-(4-hydroxy-3-methoxyphenyl)-1-(hydroxymethyl)ethoxy]-3,5-dimethoxyphenyl]-1,2,3-propanetriol]
[1]; [5]
  IC50: 97.8 ± 24 µM

## COc1cc(C(O)C(CO)Oc2ccc(C(O)C(O)CO)cc2OC)ccc1O (stereo not drawn) [compound 27]
[1]; [5]
  IC50: 164 ± 15.2 µM
